# Results reported in patent publication US9750805B2, “Calcium flux agonists and methods therefor” (Nant Holdings IP, LLC, priority 2012, dated 2017).
# Experiments:
# Assay type in all cases: cell-based, human
# [1] = tested on: TLR (TLR2, TLR4, TLR5, TLR9) and NOD (NOD1, NOD2) family members; assay: IL-8 production with TLR and NOD ligands plus suboptimal calcium flux agonist (FIGS. 3A-3E); conditions: suboptimal doses: 20 nM thapsigargin, 316 nM A23187, 1 μM ionomycin, 10 μM cyclopiazonic acid, 31.6 μM DBHQ
# Procedure: To investigate if that observation was also true for other pattern recognition receptors, and especially for TLR and NOD receptors and other ligands, the inventors tested numerous TLR and NOD receptors and various ligands.
# The doses used in this experiment were 20 nM for thapsigargin, 316 nM for A23187, 1 μM for ionomycin, 10 μM for cyclopiazonic acid, and 31.6 μM for DBHQ.
# Thus, a clear pattern of adjuvant activity of calcium flux agonists on the immune response, and especially on IL-8 production and NF-κB signaling is evident where the immune response is associated with a TLR- or NOD-mediated event.
# NF-κB THP-1 cells = assay: NF-κB luciferase reporter synergy with TLR2 ligand and effect of Ca2+ modulating compounds (FIG. 4); conditions: FIG. 4; calcium flux agonist plus TLR ligand
# Procedure: For example, human promonocytic THP-1 cells were incubated in the presence or absence of a suboptimal dose of the TLR2 ligand Pam2CSK4 and compared to similarly treated cells which also received suboptimal doses of ionophore (here: A23187 and ionomycin). […] In another example, NF-κB THP-1 cells (a THP-1-derived transfectant line harboring an NF-κB-driven luciferase expression cassette) were cultivated in the presence or absence of a suboptimal dose of the TLR2 ligand Pam2CSK4 and compared to similarly treated cells that also received suboptimal doses of various SERCA inhibitors.
# The inventors further investigated if the nature of calcium flux was of significance as increased intracellular calcium may have different origins. To that effect, the inventors used various calcium signaling modulators to investigate the nature of the calcium flux and contribution. As can be readily taken from the data shown, extracellular calcium flux into the cell was critical for synergistic amplification of calcium signaling. More specifically, FIG. 4 illustrates the effects of different Ca^2+ modulating compounds on synergy with respect to NF-κB activation.
# [2] = tested on: κB-LUC THP-1 reporter cells; assay: κB-LUC THP-1 reporter response to S. aureus conditioned/spent media (FIGS. 5B-5E)
# Excerpt: Briefly, a culture of logarithmically dividing S. aureus was washed three times with RPMI 1640 (Cellgro). Concurrently, THP-1 κB-LUC THP-1's (THP-1 cells containing the stable integration of a NF-κB luciferase reporter gene) cultured in RPMI 1640 (Cellgro) supplemented with 10% FBS (Thermo HyClone, Waltham Mass.) and 1% penicillin-streptomycin-fungizone (Thermo HyClone) were washed three times with RPMI 1640 (Cellgro) and transferred to the bottom compartment of a 24-well 0.4 μm cutoff transwell plate (Corning) at a concentration of 1.2 million/mL. Dilutions of the washed S. aureus culture were then added to the top chamber of the transwell system at the indicated initial multiplicities of infection (MOI). The cells were incubated for 18 hours at 37° C. at which time aliquots of 60,000 cells were transferred to wells in a 384-well white bottom plate (Thermo). To evaluate luciferase gene expression, Bright-Glo Luciferase Assay Reagent (Promega) was added to each well and the plates were analyzed for luciferase activity using the Perkin Elmer TopCount NXT system (Perkin Elmer).
# To determine whether the recognition of S. aureus-produced products could be further augmented through modulation of calcium flux, κB-LUC THP-1 reporter cells were incubated in the presence of a 1:100 dilution (V/V) of sterile filtered S. aureus conditioned (i.e. spent) or unused sterile media and treated with a suboptimal dose (20 nM) of thapsigargin or dimethyl sulfoxide (DMSO) vehicle control as described above. Briefly, conditioned media was produced by culturing S. aureus in RPMI with 10% fetal bovine serum overnight in a shaking incubator at 37° C. following which the bacteria were pelleted by centrifugation and the supernatants filter-sterilized using a 0.2 μm filter (VWR Radnor PA). The κB-LUC THP-1 cells were incubated in the presence of the conditioned/spent media for 18 hours prior to luciferase assay as described above.
Structure (SMILES),effect on IL-8 production with TLR and NOD ligands [1],effect of Ca2+ modulating compound on synergy with respect to NF-κB activation (NF-κB THP-1 cells),effect on calcium flux-induced synergy [2]
"CC(C)(C)c1cc(O)c(C(C)(C)C)cc1O [DBHQ, 2,5-di-tert-butylhydroquinone]",synergistic effect,,
CN([C@@H](Cc1ccc(OS(=O)(=O)c2cccc3cnccc23)cc1)C(=O)N1CCN(c2ccccc2)CC1)S(=O)(=O)c1cccc2cnccc12 [KN-62],,does not alter reporter gene expression levels,
O=C(O)CN(CCOCCOCCN(CC(=O)O)CC(=O)O)CC(=O)O [EGTA],,reduces synergistic signal down to levels in line with what is achieved by TLR ligand alone,inhibited
